Experiments:
[1] = tested on: weeds; experiment: Pre-emergence test (greenhouse), damage to weeds; assay type: in vivo; conditions: for activity against weeds: soil sprayed 24 hours after sowing, rated after three weeks as % damage vs untreated control
Description: (§1) Solvent: 5 parts by weight of acetone
(§2) Emulsifier: 1 part by weight of alkylaryl polyglycol ether
To produce a suitable preparation of active compound, 1 part by weight of active compound is mixed with the stated amount of solvent, the stated amount of emulsifier is added and the concentrate is diluted with water to the desired concentration.
Seeds of the test plants are sown in normal soil. After 24 hours, the soil is sprayed with the preparation of active compounds such that the particular amount of active compound desired is applied per unit area. The concentration of active compound in the spray liquor is chosen such that the particular amount of active compound desired is applied in 1000 liters of water per hectare.
After three weeks, the degree of damage to the plants is rated in % damage in comparison to the development of the untreated control. The figures denote: • 0%=no effect (like untreated control) • 100%=total destruction

[2] = tested on: weeds; experiment: Post-emergence test (greenhouse), damage to weeds; assay type: in vivo; conditions: for activity against weeds: test plants of 5-15 cm sprayed, rated after three weeks as % damage vs untreated control
Description: as §1, §2
To product a suitable preparation of active compound, 1 part by weight of active compound is mixed with the stated amount of solvent, the stated amount of emulsifier is added and the concentrate is diluted with water to the desired concentration.
Test plants of a height of 5-15 cm are sprayed with the preparation of active compound such that the particular amounts of active compound desired are applied per unit area. The concentration of the spray liquor is chosen such that the particular amounts of active compound desired are applied in 10001 of water/ha.
After three weeks, the degree of damage to the plants is rated in % damage in comparison to the development of the untreated control.
The figures denote: • 0%=no effect (like untreated control) • 100%=total destruction

[3] = 250 g of a.i./ha, after three weeks
[4] = 8 g of a.i./ha, after three weeks
[5] = 30 g of a.i./ha, after three weeks, Table B8
[6] = 15 g of a.i./ha, after three weeks, Table A3
[7] = 30 g of a.i./ha, after three weeks, Table B10
[8] = 60 g of a.i./ha, after three weeks, Table A7
[9] = 30 g of a.i./ha, after three weeks, Table B9
[10] = 30 g of a.i./ha, after three weeks, Table B11
[11] = 60 g of a.i./ha, after three weeks, Table A6
[12] = 30 g of a.i./ha, after three weeks, Table B12
[13] = 30 g of a.i./ha, after three weeks, Table B13
[14] = 60 g of a.i./ha, after three weeks

COc1nc(C)nc(NC(=O)NS(=O)(=O)c2c(C)cccc2OCCF)n1 [(1)]
% damage Alopecurus [1, 3]: 100%
% damage Amaranthus [1, 3]: 100%
% damage Avena fatua [1, 3]: 100%
% damage Galium [1, 3]: 100%
% damage Setaria [1, 3]: 100%
% damage Xanthium [1, 3]: 100%
% damage Abutilon [2, 3]: 100%
% damage Alopecurus [2, 3]: 95%
% damage Amaranthus [2, 3]: 100%
% damage Avena fatua [2, 3]: 95%
% damage Galium [2, 3]: 100%
% damage Setaria [2, 3]: 100%
% damage Sinapis [2, 3]: 100%

COc1nc(C)nc(NC(=O)NS(=O)(=O)c2c(C)cccc2OCCF)n1 [(2)]
% damage Alopecurus [1, 3]: 100%
% damage Amaranthus [1, 3]: 100%
% damage Avena fatua [1, 3]: 95%
% damage Galium [1, 3]: 100%
% damage Setaria [1, 3]: 100%
% damage Xanthium [1, 3]: 95%
% damage Abutilon [2, 3]: 100%
% damage Alopecurus [2, 3]: 100%
% damage Amaranthus [2, 3]: 100%
% damage Avena fatua [2, 3]: 100%
% damage Galium [2, 3]: 100%
% damage Setaria [2, 3]: 100%
% damage Sinapis [2, 3]: 100%

COc1nc(C)nc(NC(=O)NS(=O)(=O)c2c(OCCF)cccc2C(F)(F)F)n1 [(3)]
% damage Abutilon [1, 4]: 100%
% damage Cyperus [1, 4]: 100%
% damage Echinochloa [1, 4]: 100%
% damage Galium [1, 4]: 100%
% damage Solanum [1, 4]: 100%
% damage Stellaria [1, 4]: 100%
% damage Veronica [1, 4]: 100%
% damage Abutilon [2, 5]: 100%
% damage Alopecurus [2, 5]: 95%
% damage Amaranthus [2, 5]: 100%
% damage Lolium [2, 5]: 95%
% damage Matricaria [2, 5]: 100%
% damage Viola [2, 5]: 100%
% damage Xanthium [2, 5]: 100%

COc1nc(C)nc(NC(=O)[N-]S(=O)(=O)c2c(OCCF)cccc2C(F)(F)F)n1.[Na+] [(5)]
% damage Amaranthus [1, 6]: 100%
% damage Datura [1, 6]: 100%
% damage Echinochloa [1, 6]: 100%
% damage Galium [1, 6]: 100%
% damage Matricaria [1, 6]: 100%
% damage Viola [1, 6]: 100%
% damage Abutilon [2, 7]: 100%
% damage Alopecurus [2, 7]: 95%
% damage Amaranthus [2, 7]: 100%
% damage Ipomoea [2, 7]: 100%
% damage Lolium [2, 7]: 95%
% damage Matricaria [2, 7]: 100%
% damage Stellaria [2, 7]: 100%

CCc1cccc(OCCCF)c1S(=O)(=O)NC(=O)Nc1nc(C)cc(C)n1 [(6)]
% damage Abutilon [1, 8]: 90%
% damage Alopecurus [1, 8]: 80%
% damage Amaranthus [1, 8]: 90%
% damage Galium [1, 8]: 90%
% damage Setaria [1, 8]: 95%
% damage Sinapis [1, 8]: 90%
% damage Abutilon [2, 9]: 90%
% damage Alopecurus [2, 9]: 90%
% damage Amaranthus [2, 9]: 90%
% damage Ipomoea [2, 9]: 100%
% damage Xanthium [2, 9]: 95%

COc1cc(OC)nc(NC(=O)NS(=O)(=O)c2c(C)cccc2OCCCF)n1 [(12)]
% damage Abutilon [2, 10]: 95%
% damage Amaranthus [2, 10]: 95%
% damage Datura [2, 10]: 95%
% damage Echinochloa [2, 10]: 90%

COc1nc(C)nc(NC(=O)NS(=O)(=O)c2c(C)cccc2OCCCF)n1 [(13)]
% damage Abutilon [2, 7]: 100%
% damage Alopecurus [2, 7]: 90%
% damage Amaranthus [2, 7]: 100%
% damage Ipomoea [2, 7]: 90%
% damage Lolium [2, 7]: 90%
% damage Matricaria [2, 7]: 100%
% damage Stellaria [2, 7]: 100%

COc1nc(NC(=O)NS(=O)(=O)c2c(C)cccc2OCCCF)nc(OC)n1 [(15)]
% damage Abutilon [1, 11]: 95%
% damage Alopecurus [1, 11]: 95%
% damage Amaranthus [1, 11]: 100%
% damage Echinochloa [1, 11]: 95%
% damage Galium [1, 11]: 95%
% damage Sinapis [1, 11]: 95%
% damage Abutilon [2, 7]: 95%
% damage Alopecurus [2, 7]: 90%
% damage Amaranthus [2, 7]: 100%
% damage Ipomoea [2, 7]: 100%
% damage Lolium [2, 7]: 90%
% damage Matricaria [2, 7]: 100%
% damage Stellaria [2, 7]: 100%

COc1cc(Cl)nc(NC(=O)NS(=O)(=O)c2c(OCCF)cccc2C(F)(F)F)n1 [(20)]
% damage Abutilon [1, 8]: 90%
% damage Alopecurus [1, 8]: 90%
% damage Amaranthus [1, 8]: 95%
% damage Galium [1, 8]: 95%
% damage Setaria [1, 8]: 100%
% damage Sinapis [1, 8]: 95%
% damage Echinochloa [2, 12]: 90%
% damage Ipomoea [2, 12]: 100%
% damage Matricaria [2, 12]: 95%
% damage Polygonum [2, 12]: 95%
% damage Xanthium [2, 12]: 100%

COc1nc(NC(=O)NS(=O)(=O)c2c(OCCF)cccc2C(F)(F)F)nc(OC)n1 [(21)]
% damage Abutilon [1, 8]: 90%
% damage Alopecurus [1, 8]: 90%
% damage Amaranthus [1, 8]: 95%
% damage Galium [1, 8]: 95%
% damage Setaria [1, 8]: 100%
% damage Sinapis [1, 8]: 100%
% damage Avena fatua [2, 13]: 100%
% damage Datura [2, 13]: 100%
% damage Lolium [2, 13]: 100%
% damage Matricaria [2, 13]: 100%
% damage Solanum [2, 13]: 100%

CN(C)c1nc(NC(=O)NS(=O)(=O)c2c(OCCF)cccc2C(F)(F)F)nc(OCC(F)(F)F)n1 [(22)]
% damage Alopecurus [2, 14]: 90%
% damage Amaranthus [2, 14]: 100%
% damage Galium [2, 14]: 95%
% damage Ipomoea [2, 14]: 100%
% damage Setaria [2, 14]: 95%
% damage Sinapis [2, 14]: 95%

COc1cc(OC)nc(NC(=O)NS(=O)(=O)c2c(C)cccc2OCCF)n1 [(24)]
% damage Alopecurus [1, 3]: 100%
% damage Amaranthus [1, 3]: 100%
% damage Avena fatua [1, 3]: 95%
% damage Galium [1, 3]: 100%
% damage Setaria [1, 3]: 95%
% damage Xanthium [1, 3]: 95%
% damage Abutilon [2, 3]: 100%
% damage Alopecurus [2, 3]: 100%
% damage Amaranthus [2, 3]: 100%
% damage Avena fatua [2, 3]: 90%
% damage Galium [2, 3]: 90%
% damage Setaria [2, 3]: 95%
% damage Sinapis [2, 3]: 100%

CCCc1cccc(OCCF)c1S(=O)(=O)NC(=O)Nc1nc(OC)cc(OC)n1 [(26)]
% damage Alopecurus [1, 3]: 100%
% damage Amaranthus [1, 3]: 100%
% damage Avena fatua [1, 3]: 90%
% damage Galium [1, 3]: 95%
% damage Setaria [1, 3]: 100%
% damage Xanthium [1, 3]: 95%
% damage Abutilon [2, 3]: 100%
% damage Alopecurus [2, 3]: 95%
% damage Amaranthus [2, 3]: 100%
% damage Avena fatua [2, 3]: 90%
% damage Galium [2, 3]: 90%
% damage Setaria [2, 3]: 90%
% damage Sinapis [2, 3]: 95%

COc1nc(C)nc(NC(=O)NS(=O)(=O)c2c(OCCF)cccc2C(F)(F)F)n1 [Example 3]
activity against weeds [1]: very strong activity
activity against weeds [2]: very strong activity

COc1cc(OC)nc(NC(=O)NS(=O)(=O)c2c(OCCF)cccc2C(F)(F)F)n1 [Example 4]
activity against weeds [1]: very strong activity
activity against weeds [2]: very strong activity

COc1nc(C)nc(NC(=O)[N-]S(=O)(=O)c2c(OCCF)cccc2C(F)(F)F)n1.[Na+] [Example 5]
activity against weeds [1]: very strong activity
activity against weeds [2]: very strong activity

CCc1cccc(OCCCF)c1S(=O)(=O)NC(=O)Nc1nc(C)cc(C)n1 [Example 6]
activity against weeds [1]: very strong activity
activity against weeds [2]: very strong activity

CCCc1cccc(OCCCF)c1S(=O)(=O)NC(=O)Nc1nc(C)nc(OC)n1 [Example 7]
activity against weeds [1]: very strong activity
activity against weeds [2]: very strong activity

CCCc1cccc(OCCCF)c1S(=O)(=O)NC(=O)Nc1nc(OC)nc(OC)n1 [Example 8]
activity against weeds [1]: very strong activity
activity against weeds [2]: very strong activity

COc1cc(OC)nc(NC(=O)NS(=O)(=O)c2c(C)cccc2OCCCF)n1 [Example 12]
activity against weeds [2]: very strong activity

COc1nc(C)nc(NC(=O)NS(=O)(=O)c2c(C)cccc2OCCCF)n1 [Example 13]
activity against weeds [2]: very strong activity

COc1cc(Cl)nc(NC(=O)NS(=O)(=O)c2c(C)cccc2OCCCF)n1 [Example 14]
activity against weeds [1]: very strong activity
activity against weeds [2]: very strong activity

COc1nc(NC(=O)NS(=O)(=O)c2c(C)cccc2OCCCF)nc(OC)n1 [Example 15]
activity against weeds [1]: very strong activity
activity against weeds [2]: very strong activity

CCc1cccc(OCCCF)c1S(=O)(=O)NC(=O)Nc1nc(C)nc(OC)n1 [Example 17]
activity against weeds [1]: very strong activity
activity against weeds [2]: very strong activity

CCc1cccc(OCCCF)c1S(=O)(=O)NC(=O)Nc1nc(Cl)cc(OC)n1 [Example 18]
activity against weeds [2]: very strong activity

COc1cc(Cl)nc(NC(=O)NS(=O)(=O)c2c(OCCF)cccc2C(F)(F)F)n1 [Example 20]
activity against weeds [1]: very strong activity
activity against weeds [2]: very strong activity

COc1nc(NC(=O)NS(=O)(=O)c2c(OCCF)cccc2C(F)(F)F)nc(OC)n1 [Example 21]
activity against weeds [1]: very strong activity
activity against weeds [2]: very strong activity

CN(C)c1nc(NC(=O)NS(=O)(=O)c2c(OCCF)cccc2C(F)(F)F)nc(OCC(F)(F)F)n1 [Example 22]
activity against weeds [2]: very strong activity
